In the SangsterLogP compilation:

Columns and labels:
[1] = method code SF-RC, from Fauchere, J.; Pliska, V. (1983). Hydrophobic parameters of aminoacid side chains from the partitioning of N-acetylaminoacid amides. Eur J Med Chem, 18(4)369-375.; conditions: pH 7.1
[2] = method code SF-CR+AS, from Fauchere, J.; Pliska, V. (1983). Hydrophobic parameters of aminoacid side chains from the partitioning of N-acetylaminoacid amides. Eur J Med Chem, 18(4)369-375.; conditions: pH 7.1

Row | SMILES | logD [1] | logD [2]
1 | CC(=O)NC(CCC(N)=O)C(N)=O (configuration not stated) | -2.05 | –
2 | CC(=O)N[C@@H](CC(N)=O)C(N)=O | -2.41 | –
3 | CC(=O)NC(CC12CC3CC(CC(C3)C1)C2)C(N)=O (configuration not stated) | 1.9 | –
4 | CC(=O)NC(=O)C(N)CSSCC(N)C(=O)NC(C)=O (configuration not stated) | – | -1.7
5 | CC(=O)N1CCC[C@H]1C(N)=O | -1.34 | –
6 | CC(=O)N[C@@H](Cc1cnc[nH]1)C(N)=O | -1.7 | –

Second part, the molecule after the results:

Row | logD [1] | logD [2] | SMILES
7 | -0.61 | – | CC(=O)N[C@H](C(N)=O)C(C)C
8 | -0.03 | – | CCC(C)C(NC(C)=O)C(N)=O (configuration not stated)
9 | -0.13 | – | CC(=O)N[C@@H](CC(C)C)C(N)=O
10 | -1.87 | – | CC(=O)N[C@@H](CO)C(N)=O
11 | – | -0.29 | CC(=O)N[C@H](CS)C(N)=O
12 | -1.57 | – | CC(=O)NC(C(N)=O)C(C)O (configuration not stated)
